From patent US20080299598A1, “Detector Comprising a Membrane Perturbation - Detecting Polymer and Functional Membrane Fragments” (priority 2004, published 2008) come the findings set out here.

Series [1] relates to plasma membrane fragments obtained from PC12 cells. The series can be described thus: Chromatic response (% CR) of the polydiacetylene construct made with plasma membrane fragments from PC12 cells (detects membrane-permeating drugs). It counts as in vitro ADME. The settings on record: analyte up to 11 μM; 25 mM Tris base pH 8; FIG. 2. The method, then: FIG. 2 illustrates the detection of a drug molecule capable of permeating cellular membrane using the construct of the invention (comprising plasma membrane fragments obtained from PC12 cells and polydiacetylene).
(§1) 20 μl of 10,12-tricosadionic acid taken from a stock solution in 60 mM chloroform/ethanol (1:1) are dried in vacuo up to constant weight. The dried material is then resuspended in 1.950 ml deionized water and subjected to probe sonication at 70° C. for 3 minutes. The solution thus obtained is then cooled for 15 minutes, and 50 μl of plasma membrane from PC12 cells (prepared as described hereinabove) is added thereto. The vesicle suspension obtained thereby is then subject to another round of sonication for 10 seconds, left to cool to room temperature and than stored at 4° C. overnight.
Aqueous stock solutions containing 5.2 mg/ml propranolol and 1.5 mg/ml amoxicillin were prepared. […]
FIG. 2 depicts the chromatic response factor calculated for various Propranol- or Amoxicillin-containing samples on the basis of the UV-vis spectra measured, versus the concentration of the analyte (that is, either Propranol or Amoxicillin) in said samples. […]

The test system of the next series is muscarinic receptor. The series can be described thus: Chromatic response (% CR) of the polydiacetylene construct made with crude membrane fragments from PC12 cells overexpressing the muscarinic receptor. The conditions noted are these: atropine up to 20 μM; 25 mM Tris base pH 8; compared with construct from regular PC12 crude membrane; FIG. 1. It counts as binding. As for the experimental part: PC12 cells overexpressing the muscarinic receptors were prepared using conventional transfection techniques, as described, for example, by Sadot et al. [Israel Journal of neurochemistry (1996 February), 66(2), 877-80.]
as §1, with “crude” for “plasma”, “hereinabove and containing 10 mg/ml protein)” for “hereinabove)”
An aqueous stock solution containing Atropine at a concentration of 0.55 mg/ml was prepared. […]
The UV-vis spectroscopic measurements were carried out three times for each of the samples prepared, using a Jena Analytical Elisa-reader using 96 well microplates. The blue-to-red chromatic transitions were quantified using the chromatic response factor, as defined below:
where Ablue and Ared are the absorbance measured at about 640 nm and about 500 nm, respectively. […]

Regarding `CC(C)NCC(O)COc1cccc2ccccc12` (stereo not drawn) [propranolol], in series [1], the “chromatic change (% CR)” value was “high % CR”.
The same measure, in the same setting: next, `CC1(C)S[C@@H]2[C@H](NC(=O)[C@H](N)c3ccc(O)cc3)C(=O)N2[C@H]1C(=O)O` [Amoxicillin]: “very low % CR”.
With `CN1[C@@H]2CC[C@H]1C[C@@H](OC(=O)C(CO)c1ccccc1)C2` (stereo partly drawn) [atropine, Atropine], the “chromatic transition (% CR)” value with muscarinic receptor was “high % CR”.
